Results taken from patent publication EP1433789A1, “Pyrrolopyrazines and their use as selective apoptosis inducers” (Aponetics AG, priority 2002, dated 2004).

Experiments:
A20 [1] = test: Hoechst 33342 nuclear staining (Table 3); format: cell-based, mouse; design: key: 0 relating to no activity; 1 relating to weak activity comprising less than 50% of the cells; score 2 relating to strong activity comprising more than 50% of the cells
Procedure, shortened: (§1)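 Adherent cells (3-5×10^3, pre-spread 24 h) or suspension cells (8-10×10^3) treated with compounds at 10, 3, 1 and 0.3 µM for 24 or 48 h, then Hoechst 33342 stained for 30 min. Apoptotic nuclear morphology scored by fluorescence microscopy: 0 none, 1 weak (<50% cells), 2 strong (>50% cells).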

HeLa [2] = test: Hoechst 33342 nuclear staining (Table 3); format: cell-based, human; design: key: 0 relating to no activity; 1 relating to weak activity comprising less than 50% of the cells; score 2 relating to strong activity comprising more than 50% of the cells
Procedure, shortened: as §1

Jurkat [3] = test: Hoechst 33342 nuclear staining (Table 3); format: cell-based, human; design: key: 0 relating to no activity; 1 relating to weak activity comprising less than 50% of the cells; score 2 relating to strong activity comprising more than 50% of the cells
Procedure, shortened: as §1

K562 = test: Hoechst 33342 nuclear staining (Table 3); format: cell-based, human; design: key: 0 relating to no activity; 1 relating to weak activity comprising less than 50% of the cells; score 2 relating to strong activity comprising more than 50% of the cells
Procedure, shortened: as §1

KB = test: Hoechst 33342 nuclear staining (Table 3); format: cell-based, human; design: key: 0 relating to no activity; 1 relating to weak activity comprising less than 50% of the cells; score 2 relating to strong activity comprising more than 50% of the cells
Procedure, shortened: as §1

A20 [4] = test: AnnexinV/7-AAD staining; format: cell-based, mouse; conditions: A20, 10 µM, 24 h treatment
Procedure, shortened: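 Cells treated with compound at 10 µM final for 24 h, then stained with AnnexinV-GST/anti-GST Alexa 488 and 7-AAD and analysed by flow cytometry. Percent positive cells scored as 0 (<10%), 1 (10–50%) or 2 (>50%).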

HeLa [5] = test: BrdU incorporation (proliferation); format: cell-based, human; design: key: 0 for no activity; 1 for a moderate inhibition; 2 for strong inhibition of proliferation; conditions: 48 h
Method: (§2) Adherent cells are seeded out at 2 - 4*10^4 cells/well/ml in 24 well tissue culture plates 24 h prior to treatment. Suspension cells are seeded out at 2*10^5 cells/ml/well in 24 well plates. Compounds are added leading to final concentrations of 3 µM and 10 µM, respectively. Subsequently, BrdU (Molecular Probes #B-23151) at 10 µM final concentration is added and the plates are incubated for 48 h. After the incubation cells are processed according to standard procedures. The detection of the incorporated BrdU is done with the anti-bromodeoxyuridine Mab PRB-1, Alexa Fluor 660 conjugate (Molecular Probes #A-21306). The analysis is performed on a FACSCalibur™ by monitoring the fluorescence activity on FL3. The readout reflects DNA synthesis which is a hallmark for proliferation. The scores are defined the following: 0 for no activity, 1 for a moderate inhibition and 2 for strong inhibition of proliferation. Table 7 indicates inhibitory activities of several tested compounds on proliferation.

Jurkat [6] = test: BrdU incorporation (proliferation); format: cell-based, human; design: key: 0 for no activity; 1 for a moderate inhibition; 2 for strong inhibition of proliferation; conditions: 48 h
Method: as §2

SMILES: COc1cc2c(cc1OC)-c1c(Cl)c3nc4ccccc4nc3n1C(C)C2 (centres unmarked) [compound 12]
- Hoechst 33342 nuclear staining (A20 [1]; A20, 24h, conc 0.3 (µM)): 0
- Hoechst 33342 nuclear staining (A20 [1]; A20, 24h, conc 1 (µM)): 0
- Hoechst 33342 nuclear staining (A20 [1]; A20, 24h, conc 3 (µM)): 0
- Hoechst 33342 nuclear staining (A20 [1]; A20, 24h, conc 10 (µM)): 0
- Hoechst 33342 nuclear staining (A20 [1]; A20, 48h, conc 0.3 (µM)): 0
- Hoechst 33342 nuclear staining (A20 [1]; A20, 48h, conc 1 (µM)): 0
- Hoechst 33342 nuclear staining (A20 [1]; A20, 48h, conc 3 (µM)): 0
- Hoechst 33342 nuclear staining (A20 [1]; A20, 48h, conc 10 (µM)): 2 (score 2 relating to strong activity comprising more than 50% of the cells)
- Hoechst 33342 nuclear staining (HeLa [2]; 24h, conc 0.3 (µM)): 0
- Hoechst 33342 nuclear staining (HeLa [2]; 24h, conc 1 (µM)): 0
- Hoechst 33342 nuclear staining (HeLa [2]; 24h, conc 3 (µM)): 0
- Hoechst 33342 nuclear staining (HeLa [2]; 24h, conc 10 (µM)): 0
- Hoechst 33342 nuclear staining (HeLa [2]; 48h, conc 0.3 (µM)): 0
- Hoechst 33342 nuclear staining (HeLa [2]; 48h, conc 1 (µM)): 1 (1 relating to weak activity comprising less than 50% of the cells)
- Hoechst 33342 nuclear staining (HeLa [2]; 48h, conc 3 (µM)): 2 (score 2 relating to strong activity comprising more than 50% of the cells)
- Hoechst 33342 nuclear staining (HeLa [2]; 48h, conc 10 (µM)): 2 (score 2 relating to strong activity comprising more than 50% of the cells)
- Hoechst 33342 nuclear staining (Jurkat [3]; 24h, conc 0.3 (µM)): 0
- Hoechst 33342 nuclear staining (Jurkat [3]; 24h, conc 1 (µM)): 0
- Hoechst 33342 nuclear staining (Jurkat [3]; 24h, conc 3 (µM)): 1 (1 relating to weak activity comprising less than 50% of the cells)
- Hoechst 33342 nuclear staining (Jurkat [3]; 24h, conc 10 (µM)): 2 (score 2 relating to strong activity comprising more than 50% of the cells)
- Hoechst 33342 nuclear staining (Jurkat [3]; 48h, conc 0.3 (µM)): 1 (1 relating to weak activity comprising less than 50% of the cells)
- Hoechst 33342 nuclear staining (Jurkat [3]; 48h, conc 1 (µM)): 2 (score 2 relating to strong activity comprising more than 50% of the cells)
- Hoechst 33342 nuclear staining (Jurkat [3]; 48h, conc 3 (µM)): 2 (score 2 relating to strong activity comprising more than 50% of the cells)
- Hoechst 33342 nuclear staining (Jurkat [3]; 48h, conc 10 (µM)): 2 (score 2 relating to strong activity comprising more than 50% of the cells)
- Hoechst 33342 nuclear staining (K562; K562, 24h, conc 0.3 (µM)): 0
- Hoechst 33342 nuclear staining (K562; K562, 24h, conc 1 (µM)): 0
- Hoechst 33342 nuclear staining (K562; K562, 24h, conc 3 (µM)): 0
- Hoechst 33342 nuclear staining (K562; K562, 24h, conc 10 (µM)): 2 (score 2 relating to strong activity comprising more than 50% of the cells)
- Hoechst 33342 nuclear staining (K562; K562, 48h, conc 0.3 (µM)): 0
- Hoechst 33342 nuclear staining (K562; K562, 48h, conc 1 (µM)): 1 (1 relating to weak activity comprising less than 50% of the cells)
- Hoechst 33342 nuclear staining (K562; K562, 48h, conc 3 (µM)): 2 (score 2 relating to strong activity comprising more than 50% of the cells)
- Hoechst 33342 nuclear staining (K562; K562, 48h, conc 10 (µM)): 2 (score 2 relating to strong activity comprising more than 50% of the cells)
- Hoechst 33342 nuclear staining (KB; 24h, conc 0.3 (µM)): 0
- Hoechst 33342 nuclear staining (KB; 24h, conc 1 (µM)): 0
- Hoechst 33342 nuclear staining (KB; 24h, conc 3 (µM)): 0
- Hoechst 33342 nuclear staining (KB; 24h, conc 10 (µM)): 2 (score 2 relating to strong activity comprising more than 50% of the cells)
- Hoechst 33342 nuclear staining (KB; 48h, conc 0.3 (µM)): 0
- Hoechst 33342 nuclear staining (KB; 48h, conc 1 (µM)): 0
- Hoechst 33342 nuclear staining (KB; 48h, conc 3 (µM)): 2 (score 2 relating to strong activity comprising more than 50% of the cells)
- Hoechst 33342 nuclear staining (KB; 48h, conc 10 (µM)): 2 (score 2 relating to strong activity comprising more than 50% of the cells)
- percentage of positively stained cells (AnnexinV/7-AAD staining) (A20 [4]): 2 (score 2 relates to more than 50% positivity)
- BrdU incorporation (inhibition of proliferation) (HeLa [5]; 3uM): 1
- BrdU incorporation (inhibition of proliferation) (HeLa [5]; 10uM): 1
- BrdU incorporation (inhibition of proliferation) (Jurkat [6]; 3uM): 2
- BrdU incorporation (inhibition of proliferation) (Jurkat [6]; 10uM): 2

SMILES: CCC1Cc2cc(OC)c(OC)cc2-c2cc3nc4ccccc4nc3n21 (centres unmarked) [compound 13]
- Hoechst 33342 nuclear staining (A20 [1]; A20, 24h, conc 0.3 (µM)): 0
- Hoechst 33342 nuclear staining (A20 [1]; A20, 24h, conc 1 (µM)): 0
- Hoechst 33342 nuclear staining (A20 [1]; A20, 24h, conc 3 (µM)): 0
- Hoechst 33342 nuclear staining (A20 [1]; A20, 24h, conc 10 (µM)): 0
- Hoechst 33342 nuclear staining (A20 [1]; A20, 48h, conc 0.3 (µM)): 0
- Hoechst 33342 nuclear staining (A20 [1]; A20, 48h, conc 1 (µM)): 0
- Hoechst 33342 nuclear staining (A20 [1]; A20, 48h, conc 3 (µM)): 0
- Hoechst 33342 nuclear staining (A20 [1]; A20, 48h, conc 10 (µM)): 0
- Hoechst 33342 nuclear staining (HeLa [2]; 24h, conc 0.3 (µM)): 0
- Hoechst 33342 nuclear staining (HeLa [2]; 24h, conc 1 (µM)): 0
- Hoechst 33342 nuclear staining (HeLa [2]; 24h, conc 3 (µM)): 0
- Hoechst 33342 nuclear staining (HeLa [2]; 24h, conc 10 (µM)): 0
- Hoechst 33342 nuclear staining (HeLa [2]; 48h, conc 0.3 (µM)): 0
- Hoechst 33342 nuclear staining (HeLa [2]; 48h, conc 1 (µM)): 0
- Hoechst 33342 nuclear staining (HeLa [2]; 48h, conc 3 (µM)): 2 (score 2 relating to strong activity comprising more than 50% of the cells)
- Hoechst 33342 nuclear staining (HeLa [2]; 48h, conc 10 (µM)): 2 (score 2 relating to strong activity comprising more than 50% of the cells)
- Hoechst 33342 nuclear staining (Jurkat [3]; 24h, conc 0.3 (µM)): 0
- Hoechst 33342 nuclear staining (Jurkat [3]; 24h, conc 1 (µM)): 0
- Hoechst 33342 nuclear staining (Jurkat [3]; 24h, conc 3 (µM)): 1 (1 relating to weak activity comprising less than 50% of the cells)
- Hoechst 33342 nuclear staining (Jurkat [3]; 24h, conc 10 (µM)): 2 (score 2 relating to strong activity comprising more than 50% of the cells)
- Hoechst 33342 nuclear staining (Jurkat [3]; 48h, conc 0.3 (µM)): 0
- Hoechst 33342 nuclear staining (Jurkat [3]; 48h, conc 1 (µM)): 2 (score 2 relating to strong activity comprising more than 50% of the cells)
- Hoechst 33342 nuclear staining (Jurkat [3]; 48h, conc 3 (µM)): 2 (score 2 relating to strong activity comprising more than 50% of the cells)
- Hoechst 33342 nuclear staining (Jurkat [3]; 48h, conc 10 (µM)): 2 (score 2 relating to strong activity comprising more than 50% of the cells)
- Hoechst 33342 nuclear staining (K562; K562, 24h, conc 0.3 (µM)): 0
- Hoechst 33342 nuclear staining (K562; K562, 24h, conc 1 (µM)): 0
- Hoechst 33342 nuclear staining (K562; K562, 24h, conc 3 (µM)): 0
- Hoechst 33342 nuclear staining (K562; K562, 24h, conc 10 (µM)): 2 (score 2 relating to strong activity comprising more than 50% of the cells)
- Hoechst 33342 nuclear staining (K562; K562, 48h, conc 0.3 (µM)): 0
- Hoechst 33342 nuclear staining (K562; K562, 48h, conc 1 (µM)): 0
- Hoechst 33342 nuclear staining (K562; K562, 48h, conc 3 (µM)): 1 (1 relating to weak activity comprising less than 50% of the cells)
- Hoechst 33342 nuclear staining (K562; K562, 48h, conc 10 (µM)): 2 (score 2 relating to strong activity comprising more than 50% of the cells)
- Hoechst 33342 nuclear staining (KB; 24h, conc 0.3 (µM)): 0
- Hoechst 33342 nuclear staining (KB; 24h, conc 1 (µM)): 0
- Hoechst 33342 nuclear staining (KB; 24h, conc 3 (µM)): 0
- Hoechst 33342 nuclear staining (KB; 24h, conc 10 (µM)): 2 (score 2 relating to strong activity comprising more than 50% of the cells)
- Hoechst 33342 nuclear staining (KB; 48h, conc 0.3 (µM)): 0
- Hoechst 33342 nuclear staining (KB; 48h, conc 1 (µM)): 0
- Hoechst 33342 nuclear staining (KB; 48h, conc 3 (µM)): 2 (score 2 relating to strong activity comprising more than 50% of the cells)
- Hoechst 33342 nuclear staining (KB; 48h, conc 10 (µM)): 2 (score 2 relating to strong activity comprising more than 50% of the cells)
- percentage of positively stained cells (AnnexinV/7-AAD staining) (A20 [4]): 2 (score 2 relates to more than 50% positivity)
- BrdU incorporation (inhibition of proliferation) (HeLa [5]; 3uM): 1
- BrdU incorporation (inhibition of proliferation) (Jurkat [6]; 3uM): 2
- BrdU incorporation (inhibition of proliferation) (Jurkat [6]; 10uM): 2
